Type in all cases: in vivo
In test [1] the test system is Corn Planthopper (Peregrinus maidis (Ashmead)). Kind of test: Test B: control of Corn Planthopper on sprayed corn plant. As to conditions: 144 h, nymphs, 6 days; for mortality at 50 ppm: sprayed at 50 ppm; for mortality at 10 ppm: sprayed at 10 ppm; for mortality at 250 ppm: sprayed at 250 ppm. As to the method: (§1) Test compounds were formulated using a solution containing 10% acetone, 90% water and 300 ppm Activator 90@ non-ionic surfactant (Loveland Products, Loveland, Colorado, USA). The formulated compounds were applied in 1 mL of liquid through an atomized nozzle positioned 1.27 cm (0.5 inches) above the top of each test unit. Test compounds were sprayed at the rates indicated, and each test was replicated three times.
For evaluating control of Corn Planthopper (Peregrinus maidis (Ashmead)) through contact and/or systemic means, the test unit consisted of a small open container with a 3-4-day-old corn (maize) plant inside. White sand was added to the top of the soil prior to application of the test compound.
Test compounds were formulated and sprayed at 250, 50 and 10 ppm. After spraying of the formulated test compound, the test units were allowed to dry for 1 h before they were post-infested with ˜15-20 nymphs (18-to-21-day-old). A black, screened cap was placed on the top of each test unit, and the test units were held for 6 days in a growth chamber at 22-24° C. and 50-70% relative humidity. Each test unit was then visually assessed for insect mortality.

The test system of test [2] is cotton melon aphid (Aphis gossypii (Glover)). Kind of test: Test E: control of cotton melon aphid on sprayed okra plant. As to conditions: 144 h, pre-infested, 6 days; for mortality at 250 ppm: sprayed at 250 ppm; for mortality at 10 ppm: sprayed at 10 ppm; for mortality at 50 ppm: sprayed at 50 ppm. As for the experimental part: as §1
For evaluating control of cotton melon aphid (Aphis gossypii (Glover)) through contact and/or systemic means, the test unit consisted of a small open container with a 5-day-old okra plant inside. This was pre-infested with 30-40 insects on a piece of leaf according to the cut-leaf method, and the soil of the test unit was covered with a layer of sand.
Test compounds were formulated and sprayed at 250, 50, 10 and 2 ppm. After spraying, the test units were maintained in a growth chamber for 6 days at 19° C. and 70% relative humidity. Each test unit was then visually assessed for insect mortality.

The subject of test [3] is Green Peach Aphid (Myzus persicae (Sulzer)). Briefly: Test D: control of Green Peach Aphid on sprayed radish plant. The following applies: 144 h, pre-infested, 6 days; for mortality at 50 ppm: sprayed at 50 ppm; for mortality at 250 ppm: sprayed at 250 ppm. As to the method:
as §1
For evaluating control of Green Peach Aphid (Myzus persicae (Sulzer)) through contact and/or systemic means, the test unit consisted of a small open container with a 12-15-day-old radish plant inside. Prior to compound application, each test unit was pre-infested by placing on a leaf of the test plant 30-40 aphids on a piece of leaf excised from a culture plant (cut-leaf method). The aphids moved onto the test plant as the leaf piece desiccated. After pre-infestation, the soil of the test unit was covered with a layer of sand.
Test compounds were formulated and sprayed at 250 and 50 ppm. After spraying of the formulated test compound, each test unit was allowed to dry for 1 hour and then a black, screened cap was placed on top. The test units were held for 6 days in a growth chamber at 19-21° C. and 50-70% relative humidity. Each test unit was then visually assessed for insect mortality.

SMILES strings stand for the structures.

Consider `CCC#CCn1cc(-c2cc(C(F)(F)F)ccn2)nn1` [Compound 208], for which the mortality at 50 ppm in test [1] is at least 80%. In test [2], this molecule had a mortality at 250 ppm of at least 80%.

Molecule `CCC#CCn1cc(-c2cncc(C#N)c2)nn1` [Compound 233] came in with a mortality at 250 ppm in test [2] of at least 80%. In test [1], `CCC#CCn1cc(-c2cccc(C(F)(F)F)c2)nn1` [Compound 3, 1-(2-Pentyn-1-yl)-4-[3-(trifluoromethyl)phenyl]-1H-1,2,3-triazole] gave a mortality at 50 ppm of at least 80%. With `CCC#CCn1ncc(-c2ccc(C(F)(F)F)nc2)n1` [Compound 126, 5-[2-(2-Pentyn-1-yl)-2H-1,2,3-triazol-4-yl]-2-(trifluoromethyl)pyridine], the mortality at 10 ppm in test [1] and in test [2] was at least 80% in each case. Besides, in test [3], the mortality at 50 ppm was at least 80%. The molecule `CCC#CCn1cc(-c2ccc(C(F)(F)F)nc2)nn1` [Compound 125] yielded a mortality at 250 ppm in test [1] of at least 80%. In the case of `CCC#CCn1nnc(-c2ccc3ccccc3c2)n1` [Compound 168], the mortality at 50 ppm in test [1] and in test [2] was at least 80% each time. For the molecule `CCC#CCn1nnc(-c2ccc(Cl)cc2)n1` [Compound 60, 5-(4-chlorophenyl)-2-(pent-2-yn-1-yl)-1,2,3,4-tetrazole], the mortality at 250 ppm in test [3] was at least 80%. Also, the mortality at 50 ppm in test [2] was at least 80%. In test [2], `CCC#CCn1ncc(-c2cc(OC)ccn2)n1` [Compound 234] came in with a mortality at 250 ppm of at least 80%. As to `CCC#CCn1ncc(-c2ccc(C(F)(F)F)cn2)n1` [Compound 124, 2-[2-(2-Pentyn-1-yl)-2H-1,2,3-triazol-4-yl]-5-(trifluoromethyl)pyridine], the mortality at 50 ppm in test [1], in test [3] and in test [2] was at least 80% throughout. For the molecule `CCC#CCn1ncc(-c2cncc(C(F)(F)F)c2)n1` [Compound 204, 3-[2-(2-Pentyn-1-yl)-2H-1,2,3-triazol-4-yl]-5-(trifluoromethyl)pyridine], the mortality at 50 ppm in test [1] and in test [3] was at least 80% each time. The molecule further came in with a mortality at 10 ppm in test [2] of at least 80%. Molecule `CCC#CCn1cc(-c2cncc(OC)c2)nn1` [Compound 255] yielded a mortality at 250 ppm in test [1] of at least 80%. Turning to `CCC#CCn1nnc(-c2cccs2)n1` [Compound 130], the mortality at 250 ppm in test [2] is at least 80%.

In the case of `CCC#CCn1nnc(-c2ccnc(OC)c2)n1` [Compound 236, 2-Methoxy-4-[2-(2-pentyn-1-yl)-2H-tetrazol-5-yl]pyridine], the mortality at 50 ppm in test [1] and in test [2] was at least 80% each time. The molecule further showed a mortality at 250 ppm in test [3] of at least 80%.

For the molecule `CCC#CCn1ncc(-c2cccc(C#N)n2)n1` [Compound 250], the mortality at 50 ppm in test [1] and in test [2] was at least 80% in each case.

On to `CCC#CCn1nnc(-c2cccc(OC)n2)n1` [Compound 251], for which the mortality at 250 ppm in test [1] and in test [2] was at least 80% each time.

In turn, `CCC#CCn1nnc(-c2cc3ccccc3o2)n1` [Compound 194] registered a mortality at 250 ppm in test [1] of at least 80%. For the same molecule, the mortality at 50 ppm in test [2] was at least 80%.

Take `CCC#CCn1ncc(-c2cncc(C#N)c2)n1` [Compound 232]: the mortality at 50 ppm in test [2] is at least 80%. In the case of `CCC#CCn1ncc(-c2cc(C(F)(F)F)ccn2)n1` [Compound 203], the mortality at 250 ppm in test [1] and in test [3] was at least 80% in each case. In test [2], the mortality at 50 ppm was at least 80%. `CCC#CCn1cc(-c2cccc(C#N)n2)nn1` [Compound 249]: the mortality at 250 ppm in test [2] was at least 80%. Consider `CCC#CCn1nnc(-c2ccc(C(F)(F)F)cn2)n1` [Compound 122], for which, in test [1], the mortality at 250 ppm is at least 80%. For `CCC#CCn1ncc(-c2cccc(OC)n2)n1` [Compound 237], in test [1], the mortality at 50 ppm is at least 80%. This molecule also showed a mortality at 250 ppm in test [2] of at least 80%. As for `CCC#CCn1ncc(-c2cc(F)cc(C#N)c2)n1` [Compound 175, 3-Fluoro-5-[2-(2-pentyn-1-yl)-2H-1,2,3-triazol-4-yl]benzonitrile], the mortality at 50 ppm in test [1] and in test [2] was at least 80% in each case. The molecule `CCC#CCn1cc(-c2ccc(F)cn2)nn1` [Compound 149] came in with a mortality at 50 ppm in test [1] of at least 80%. In test [2], this molecule came in with a mortality at 250 ppm of at least 80%.

As for `CCC#CCn1cc(-c2ccc(OC(F)(F)F)nc2)nn1` [Compound 206], the mortality at 250 ppm in test [1] was at least 80%.

As for `CCC#CCn1nnc(-c2ccc(C(F)(F)F)cc2)n1` [Compound 64, 2-(2-Pentyn-1-yl)-5-[4-(trifluoromethyl)phenyl]-2H-tetrazole], the mortality at 10 ppm in test [1] and in test [2] was at least 80% in each case. The same molecule displayed a mortality at 50 ppm in test [3] of at least 80%. As for `CCC#CCn1nnc(-c2ccnc(C#N)c2)n1` [Compound 222], in test [2], the mortality at 50 ppm was at least 80%. For `CCC#CCn1ncc(-c2cccc(C(F)(F)F)n2)n1` [Compound 213], the mortality at 250 ppm in test [1] and in test [3] was at least 80% throughout. Also, in test [2], the mortality at 50 ppm is at least 80%.

For the molecule `CCC#CCn1nnc(-c2cc(C(F)(F)F)ccn2)n1` [Compound 177], the mortality at 50 ppm in test [2] is at least 80%.

Turning to `CCC#CCn1ncc(-c2ccc(OC(F)(F)F)nc2)n1` [Compound 207, 5-[2-(2-Pentyn-1-yl)-2H-1,2,3-triazol-4-yl]-2-(trifluoromethoxy)pyridine], the mortality at 50 ppm in test [1], in test [3] and in test [2] was at least 80% throughout.

In test [2], `CCC#CCn1ncc(-c2cncc(OC)c2)n1` [Compound 252] had a mortality at 250 ppm of at least 80%. `CCC#CCn1ncc(-c2ccnc(C#N)c2)n1` [Compound 219] came in with a mortality at 50 ppm in test [2] of at least 80%.

With `CCC#CCn1cc(-c2cccc(C(F)(F)F)n2)nn1` [Compound 212], the mortality at 250 ppm in test [1] was at least 80%. Molecule `CCC#CCn1nnc(-c2cc(C#N)ccn2)n1` [Compound 303] displayed a mortality at 250 ppm in test [2] of at least 80%. `CCC#CCn1nnc(-c2cc(OC)ccn2)n1` [Compound 223] displayed a mortality at 250 ppm in test [2] of at least 80%.

Consider `CCC#CCn1nnc(-c2ccsc2)n1` [Compound 129], for which, in test [2], the mortality at 250 ppm is at least 80%. Consider `CCC#CCn1cc(-c2ccc(C(F)(F)F)cn2)nn1` [Compound 123, 2-[1-(2-Pentyn-1-yl)-1H-1,2,3-triazol-4-yl]-5-(trifluoromethyl)pyridine], for which the mortality at 50 ppm in test [1] and in test [2] was at least 80% each time.

For `CCC#CCn1nnc(-c2cnc3ccccc3c2)n1` [Compound 169], the mortality at 250 ppm in test [1] was at least 80%. For the same molecule, the mortality at 50 ppm in test [2] was at least 80%. The molecule `CCC#CCn1cc(-c2ccc(Cl)nc2)nn1` [Compound 156] registered a mortality at 250 ppm in test [2] of at least 80%. Regarding `CCC#CCn1ncc(-c2ccnc(C(F)(F)F)c2)n1` [Compound 197], the mortality at 50 ppm in test [1] and in test [2] was at least 80% each time. With `CCC#CCn1cc(-c2cncc(F)c2)nn1` [Compound 154], the mortality at 250 ppm in test [1] and in test [2] was at least 80% each time. As to `CCC#CCn1cc(-c2ccccc2)cn1` [Compound 114], the mortality at 250 ppm in test [1] and in test [2] was at least 80% throughout. As for `CCC#CCn1cc(-c2cncc(C(F)(F)F)c2)nn1` [Compound 205], the mortality at 250 ppm in test [1] and in test [2] was at least 80% each time. As to `CCC#CCn1cc(-c2ccnc(C(F)(F)F)c2)nn1` [Compound 198], the mortality at 250 ppm in test [1] and in test [2] was at least 80% each time.

A word on the mortality: it is the share of the test organisms that died. A higher mortality goes with fewer survivors.
